Among the data in ChEMBL document CHEMBL3397036, “Novel tail and head group prostamide probes” (Bioorg Med Chem Lett, 2015) are IC50, Ki and Activity values, retold here.

SMILES strings stand for the structures. The source made the active and inactive calls. No cut-off for these calls is given here.

Test [1] has as its target T1, Fatty-acid amide hydrolase 1 (Homo sapiens, UniProt O00519).
T1 sequence (O00519 whole entry): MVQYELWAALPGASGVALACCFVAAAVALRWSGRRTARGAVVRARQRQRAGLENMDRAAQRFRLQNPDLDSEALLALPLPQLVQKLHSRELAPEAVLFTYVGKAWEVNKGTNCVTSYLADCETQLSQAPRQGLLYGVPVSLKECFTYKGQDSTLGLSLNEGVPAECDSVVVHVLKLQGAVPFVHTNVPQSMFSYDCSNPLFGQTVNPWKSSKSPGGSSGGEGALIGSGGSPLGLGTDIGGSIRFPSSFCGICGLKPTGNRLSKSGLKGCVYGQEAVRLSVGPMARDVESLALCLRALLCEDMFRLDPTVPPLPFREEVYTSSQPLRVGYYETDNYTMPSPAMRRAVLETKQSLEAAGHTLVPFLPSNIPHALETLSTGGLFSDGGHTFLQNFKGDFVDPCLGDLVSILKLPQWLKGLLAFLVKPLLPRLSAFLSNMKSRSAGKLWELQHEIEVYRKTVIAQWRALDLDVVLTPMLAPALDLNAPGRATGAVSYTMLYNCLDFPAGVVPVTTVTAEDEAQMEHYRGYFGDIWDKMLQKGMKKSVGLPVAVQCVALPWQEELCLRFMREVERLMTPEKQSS
In words: Inhibition of human FAAH.

The target in the next test is T2, Monoglyceride lipase (Homo sapiens, UniProt Q99685).
T2 sequence (Q99685 whole entry): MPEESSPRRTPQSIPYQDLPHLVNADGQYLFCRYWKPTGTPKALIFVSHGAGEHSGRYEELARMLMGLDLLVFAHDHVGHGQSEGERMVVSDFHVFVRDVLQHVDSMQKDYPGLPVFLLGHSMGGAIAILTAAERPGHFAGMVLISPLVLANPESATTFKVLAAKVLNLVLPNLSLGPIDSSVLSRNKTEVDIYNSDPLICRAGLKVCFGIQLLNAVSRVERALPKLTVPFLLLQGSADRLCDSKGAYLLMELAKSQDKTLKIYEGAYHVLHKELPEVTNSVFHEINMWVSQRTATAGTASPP
In words: Inhibition of human MGL.

In test [2] the target is T3, N-acylethanolamine-hydrolyzing acid amidase (Homo sapiens, UniProt Q02083).
T3 sequence (Q02083 whole entry): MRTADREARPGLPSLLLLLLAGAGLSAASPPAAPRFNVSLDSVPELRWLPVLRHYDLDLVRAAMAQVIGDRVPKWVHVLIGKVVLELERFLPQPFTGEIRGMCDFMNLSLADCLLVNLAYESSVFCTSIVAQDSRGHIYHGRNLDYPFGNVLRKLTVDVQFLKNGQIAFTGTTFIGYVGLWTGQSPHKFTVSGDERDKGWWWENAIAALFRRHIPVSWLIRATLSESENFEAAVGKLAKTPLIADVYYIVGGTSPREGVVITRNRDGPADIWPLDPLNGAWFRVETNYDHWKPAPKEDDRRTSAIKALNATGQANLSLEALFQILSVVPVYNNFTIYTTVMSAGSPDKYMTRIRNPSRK
In words: Inhibition of human NAAA.

Test [3] concerns the target T4, Cannabinoid receptor 1 (Rattus norvegicus, UniProt P20272). Nature of the test: Displacement of [3H]CP-55,940 from CB1 receptor in rat brain homogenates in presence of phenylmethanesulfonyl fluoride. It counts as tissue-based. In general terms: Displacement assays read how much labelled ligand stays bound in the presence of the test substance.
The target of test [4] is T4, Cannabinoid receptor 1. Nature of the test: Displacement of [3H]CP-55,940 from CB1 receptor in rat brain homogenates in absence of phenylmethanesulfonyl fluoride. It counts as tissue-based.
The target in test [5] is Cannabinoid receptor 2 (Homo sapiens, UniProt P34972). Nature of the test: Displacement of [3H]CP-55,940 from human CB2 receptor expressed in HEK293 cells. The format is cell-based.
In test [6] the target is T5, Fatty-acid amide hydrolase 1 (Rattus norvegicus, UniProt P97612).
T5 sequence (P97612 whole entry): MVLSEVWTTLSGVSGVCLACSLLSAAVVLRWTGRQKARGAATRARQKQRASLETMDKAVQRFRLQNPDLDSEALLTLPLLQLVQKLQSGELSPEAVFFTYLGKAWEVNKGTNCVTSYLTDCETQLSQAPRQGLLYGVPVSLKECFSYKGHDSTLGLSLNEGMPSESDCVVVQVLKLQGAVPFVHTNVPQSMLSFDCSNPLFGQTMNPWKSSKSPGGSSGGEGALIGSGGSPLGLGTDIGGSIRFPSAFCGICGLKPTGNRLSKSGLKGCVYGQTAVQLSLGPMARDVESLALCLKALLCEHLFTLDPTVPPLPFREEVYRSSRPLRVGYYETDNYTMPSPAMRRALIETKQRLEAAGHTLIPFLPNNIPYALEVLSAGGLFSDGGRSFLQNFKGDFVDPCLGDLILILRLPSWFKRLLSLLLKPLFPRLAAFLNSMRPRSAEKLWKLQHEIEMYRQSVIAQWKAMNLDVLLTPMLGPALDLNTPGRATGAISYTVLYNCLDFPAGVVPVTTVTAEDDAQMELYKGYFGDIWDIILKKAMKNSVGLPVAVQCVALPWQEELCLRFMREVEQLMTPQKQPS
Nature of the test: Inhibition of rat FAAH.

For test [7], the target named is Cannabinoid receptor 2 (Mus musculus, UniProt P47936). Nature of the test: Displacement of [3H]CP-55,940 from mouse CB2 receptor expressed in HEK293 cells. It counts as cell-based.
Test [8] deals with Prostaglandin E2 receptor EP4 subtype (Homo sapiens) (UniProt P35408). In words: Activity at recombinant EP4 receptor (unknown origin) expressed in CHO cells co-expressing Gs protein at 100 nM by electrical cell substrate impedance sensing system. It counts as cell-based.
The target in test [9] is T6, Prostaglandin E2 receptor EP1 subtype (Homo sapiens) (UniProt P34995).
T6 sequence (whole entry): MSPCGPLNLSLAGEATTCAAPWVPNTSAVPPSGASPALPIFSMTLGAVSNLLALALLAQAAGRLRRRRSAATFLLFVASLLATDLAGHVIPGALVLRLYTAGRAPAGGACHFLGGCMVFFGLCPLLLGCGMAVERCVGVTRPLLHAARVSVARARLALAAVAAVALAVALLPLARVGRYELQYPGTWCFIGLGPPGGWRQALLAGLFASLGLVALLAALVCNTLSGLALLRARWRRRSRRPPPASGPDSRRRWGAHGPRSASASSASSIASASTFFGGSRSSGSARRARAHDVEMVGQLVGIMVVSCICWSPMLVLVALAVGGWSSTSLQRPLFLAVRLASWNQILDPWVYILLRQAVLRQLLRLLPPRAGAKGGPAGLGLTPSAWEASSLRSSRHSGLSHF
Nature of the test: Activity at recombinant EP1 receptor (unknown origin) expressed in CHO cells co-expressing Gq protein at 100 nM by electrical cell substrate impedance sensing system. The format is cell-based.

Test [10] addresses T7, Prostaglandin E2 receptor EP3 subtype (Homo sapiens) (UniProt P43115).
T7 sequence (whole entry): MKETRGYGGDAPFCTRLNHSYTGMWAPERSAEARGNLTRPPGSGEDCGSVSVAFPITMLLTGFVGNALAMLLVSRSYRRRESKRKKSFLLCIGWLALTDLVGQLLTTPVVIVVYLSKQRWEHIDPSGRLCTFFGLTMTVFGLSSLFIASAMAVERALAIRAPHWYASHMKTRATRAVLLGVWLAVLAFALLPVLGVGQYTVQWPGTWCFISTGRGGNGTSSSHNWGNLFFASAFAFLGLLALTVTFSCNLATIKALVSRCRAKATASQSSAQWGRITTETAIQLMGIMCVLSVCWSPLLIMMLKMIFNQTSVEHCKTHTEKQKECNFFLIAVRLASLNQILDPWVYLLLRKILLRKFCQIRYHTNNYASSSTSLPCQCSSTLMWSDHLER
Nature of the test: Activity at recombinant EP3 receptor (unknown origin) expressed in CHO cells co-expressing Gi protein at 100 nM by electrical cell substrate impedance sensing system. It counts as cell-based.

Cannabinoid receptor 2 (Homo sapiens, UniProt P34972), sequence (P34972 whole entry): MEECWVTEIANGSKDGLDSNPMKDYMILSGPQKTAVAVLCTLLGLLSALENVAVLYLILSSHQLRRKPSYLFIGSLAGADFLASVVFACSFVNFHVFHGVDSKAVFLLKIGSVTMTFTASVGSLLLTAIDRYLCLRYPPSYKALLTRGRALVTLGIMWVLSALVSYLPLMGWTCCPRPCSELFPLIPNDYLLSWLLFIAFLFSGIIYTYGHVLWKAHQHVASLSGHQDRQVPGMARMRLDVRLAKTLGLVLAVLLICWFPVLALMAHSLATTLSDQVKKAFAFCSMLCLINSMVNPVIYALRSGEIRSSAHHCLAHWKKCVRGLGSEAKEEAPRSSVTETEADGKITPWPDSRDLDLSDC
Cannabinoid receptor 2 (Mus musculus, UniProt P47936), sequence (P47936 whole entry): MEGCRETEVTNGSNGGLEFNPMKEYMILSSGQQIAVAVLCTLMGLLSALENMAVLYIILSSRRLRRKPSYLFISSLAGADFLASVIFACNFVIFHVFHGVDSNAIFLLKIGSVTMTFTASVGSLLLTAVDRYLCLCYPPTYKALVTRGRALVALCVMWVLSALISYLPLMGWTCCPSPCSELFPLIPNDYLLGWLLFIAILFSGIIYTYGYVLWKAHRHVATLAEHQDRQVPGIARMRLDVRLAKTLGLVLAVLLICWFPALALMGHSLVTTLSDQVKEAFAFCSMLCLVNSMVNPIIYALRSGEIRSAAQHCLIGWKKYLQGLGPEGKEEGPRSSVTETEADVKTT
T4 sequence (P20272 whole entry): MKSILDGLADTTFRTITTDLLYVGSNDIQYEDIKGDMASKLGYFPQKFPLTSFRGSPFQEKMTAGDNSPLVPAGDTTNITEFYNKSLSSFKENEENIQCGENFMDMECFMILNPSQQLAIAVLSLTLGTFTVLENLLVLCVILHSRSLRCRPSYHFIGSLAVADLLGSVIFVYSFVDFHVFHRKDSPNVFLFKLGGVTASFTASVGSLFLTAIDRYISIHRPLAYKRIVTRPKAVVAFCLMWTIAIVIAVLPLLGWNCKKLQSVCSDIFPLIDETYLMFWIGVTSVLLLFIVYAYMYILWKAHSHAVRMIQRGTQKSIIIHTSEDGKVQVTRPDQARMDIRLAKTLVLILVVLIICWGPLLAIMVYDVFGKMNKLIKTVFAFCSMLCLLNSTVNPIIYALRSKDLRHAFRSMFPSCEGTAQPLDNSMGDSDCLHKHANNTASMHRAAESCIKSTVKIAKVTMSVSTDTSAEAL
Prostaglandin E2 receptor EP4 subtype (Homo sapiens), sequence (P35408 whole entry): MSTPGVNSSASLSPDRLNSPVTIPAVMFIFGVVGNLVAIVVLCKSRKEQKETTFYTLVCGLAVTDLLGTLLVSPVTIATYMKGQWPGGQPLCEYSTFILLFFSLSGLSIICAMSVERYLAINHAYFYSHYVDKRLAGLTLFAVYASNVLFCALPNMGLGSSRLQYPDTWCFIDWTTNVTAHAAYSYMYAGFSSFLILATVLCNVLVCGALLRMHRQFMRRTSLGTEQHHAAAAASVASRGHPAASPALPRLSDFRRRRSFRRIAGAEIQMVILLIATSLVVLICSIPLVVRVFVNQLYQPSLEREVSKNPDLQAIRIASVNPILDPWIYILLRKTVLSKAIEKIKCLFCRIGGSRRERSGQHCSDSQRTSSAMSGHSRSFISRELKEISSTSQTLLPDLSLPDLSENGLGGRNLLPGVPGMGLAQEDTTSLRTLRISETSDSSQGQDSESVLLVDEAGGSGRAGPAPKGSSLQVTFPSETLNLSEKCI

As a reminder, the IC50 is the concentration that gives 50% inhibition. In general, Ki refers to a measure of affinity in units of concentration, obtained from inhibition or displacement. Regarding `O=C(CCC/C=C\C[C@H]1C(=O)C[C@@H](O)[C@@H]1/C=C/[C@@H](O)CCc1ccccc1)NCCCO`, the IC50 (in [1]; at Monoglyceride lipase; in test [2]; in test [6]) was over 100000 nM in each case. Moreover, the inhibition constant Ki at Cannabinoid receptor 1 [3], at Cannabinoid receptor 1 [4], at Cannabinoid receptor 2 [5] and at Cannabinoid receptor 2 [7] was over 1000 nM in each case.

With `C[C@H](CO)NC(=O)CCC/C=C\C[C@H]1C(=O)C[C@@H](O)[C@@H]1/C=C/[C@@H](O)CCc1ccccc1`, the half-maximal inhibitory concentration (IC50) (in test [1]; at Monoglyceride lipase; in test [2]; in test [6]) was over 100000 nM throughout. Moreover, the Ki is 730 nM at Cannabinoid receptor 1 [3], 770 nM at Cannabinoid receptor 1 [4], over 1000 nM at Cannabinoid receptor 2 [5] and over 1000 nM at Cannabinoid receptor 2 [7].

Consider `C[C@@H](CO)NC(=O)CCC/C=C\C[C@H]1C(=O)C[C@@H](O)[C@@H]1/C=C/[C@@H](O)CCc1ccccc1`, for which the concentration for half-maximal inhibition (IC50) (in test [1]; on Monoglyceride lipase; in [2]; in test [6]) was over 100000 nM throughout. The inhibitory constant (Ki) at Cannabinoid receptor 1 [3] is 950 nM; on Cannabinoid receptor 1 [4], over 1000 nM; on Cannabinoid receptor 2 [5], over 1000 nM; at Cannabinoid receptor 2 [7], over 1000 nM.

Regarding `CCCCC[C@H](O)/C=C/[C@H]1[C@H](O)CC(=O)[C@@H]1C/C=C\CCCC(=O)NCCO`, the result in [8], in test [9] and in [10] was inactive.

For `CCCCC[C@H](O)/C=C/[C@H]1[C@H](O)CC(=O)[C@@H]1C/C=C\CCCC(=O)O`, the outcome in test [8], in test [9] and in test [10] was Active.

`O=C(CCC/C=C\C[C@H]1C(=O)C[C@@H](O)[C@@H]1/C=C/[C@@H](O)CCc1ccc(I)cc1)NCCO`: the concentration for half-maximal inhibition (IC50) (in test [1]; on Monoglyceride lipase; in test [2]; in test [6]) was over 100000 nM in each case. For the same compound, the Ki at Cannabinoid receptor 1 [3] is 620 nM; at Cannabinoid receptor 1 [4], 830 nM; at Cannabinoid receptor 2 [5], over 1000 nM; on Cannabinoid receptor 2 [7], over 1000 nM.

As for `O=C(CCC/C=C\C[C@H]1C(=O)C[C@@H](O)[C@@H]1/C=C/[C@@H](O)CCc1ccccc1)NCCO`, the IC50 is over 100000 nM in test [1], 100000 nM against Monoglyceride lipase, over 100000 nM in test [2] and over 100000 nM in test [6]. In addition, the Ki at Cannabinoid receptor 1 [3], at Cannabinoid receptor 1 [4], on Cannabinoid receptor 2 [5] and at Cannabinoid receptor 2 [7] was over 1000 nM in each case. The result in test [8], in [9] and in test [10] was inactive.

`O=C(CCC/C=C\C[C@H]1C(=O)C[C@@H](O)[C@@H]1/C=C/[C@H](O)CCc1ccccc1)NCCO`: the 50% inhibitory concentration (IC50) (in test [1]; against Monoglyceride lipase; in test [2]; in [6]) was over 100000 nM each time. The Ki was 740 nM on Cannabinoid receptor 1 [3], 740 nM at Cannabinoid receptor 1 [4], over 1000 nM on Cannabinoid receptor 2 [5] and over 1000 nM on Cannabinoid receptor 2 [7].
